Source: paper PMC2654387 (Biochemistry, 2008)
Read-outs that look alike come from different tables or passages of the source.

Assays:
BasE [1] = target: T1, BasE (Acinetobacter baumannii, UniProt A0A0D5YGP3); type: biochemical
EntE [2] = target: T2, EntE (Escherichia coli, UniProt P10378); details: cited from earlier work
BasE [3] = target: T1, BasE; test: biochemical; type: binding
EntE [4] = target: T2, EntE; test: biochemical; type: binding
MbtA [5] = target: T3, MbtA (Mycobacterium tuberculosis, UniProt P71716)
T3 sequence (P71716 whole entry, looked up): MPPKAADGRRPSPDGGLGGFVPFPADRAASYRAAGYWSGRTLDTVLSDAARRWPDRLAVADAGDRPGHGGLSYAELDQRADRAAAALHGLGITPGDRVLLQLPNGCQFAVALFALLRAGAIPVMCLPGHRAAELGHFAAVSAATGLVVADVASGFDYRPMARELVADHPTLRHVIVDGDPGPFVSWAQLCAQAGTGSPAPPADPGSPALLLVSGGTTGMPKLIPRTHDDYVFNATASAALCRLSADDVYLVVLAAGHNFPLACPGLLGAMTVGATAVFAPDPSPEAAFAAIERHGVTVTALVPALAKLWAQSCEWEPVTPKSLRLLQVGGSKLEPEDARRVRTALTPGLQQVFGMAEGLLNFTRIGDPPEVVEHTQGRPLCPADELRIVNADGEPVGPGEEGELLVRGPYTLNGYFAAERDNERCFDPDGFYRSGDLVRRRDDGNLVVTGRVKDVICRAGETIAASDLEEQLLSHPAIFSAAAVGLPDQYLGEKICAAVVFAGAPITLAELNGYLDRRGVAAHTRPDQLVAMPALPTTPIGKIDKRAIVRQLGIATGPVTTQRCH

DhbE [6] = target: T4, DhbE (Bacillus subtilis, UniProt P40871); type: binding
T4 sequence (P40871 whole entry): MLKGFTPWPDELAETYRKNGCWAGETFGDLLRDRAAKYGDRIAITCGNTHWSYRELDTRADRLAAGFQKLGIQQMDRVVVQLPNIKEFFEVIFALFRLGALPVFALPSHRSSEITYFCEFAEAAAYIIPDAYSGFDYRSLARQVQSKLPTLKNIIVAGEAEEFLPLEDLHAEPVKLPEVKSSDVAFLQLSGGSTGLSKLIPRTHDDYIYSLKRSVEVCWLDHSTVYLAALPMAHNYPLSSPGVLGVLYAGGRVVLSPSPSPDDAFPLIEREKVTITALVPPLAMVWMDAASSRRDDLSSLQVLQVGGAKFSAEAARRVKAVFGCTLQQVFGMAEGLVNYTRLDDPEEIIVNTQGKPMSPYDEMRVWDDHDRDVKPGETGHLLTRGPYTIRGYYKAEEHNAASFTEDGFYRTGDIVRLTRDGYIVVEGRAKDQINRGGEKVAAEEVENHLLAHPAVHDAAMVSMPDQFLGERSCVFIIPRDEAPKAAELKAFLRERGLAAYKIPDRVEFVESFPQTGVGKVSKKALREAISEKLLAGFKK

MbtA [7] = target: T3, MbtA; remark: listed apart in the source
VibE [8] = target: T5, VibE (Vibrio cholerae serotype O1, UniProt O07899)
T5 sequence (O07899 whole entry): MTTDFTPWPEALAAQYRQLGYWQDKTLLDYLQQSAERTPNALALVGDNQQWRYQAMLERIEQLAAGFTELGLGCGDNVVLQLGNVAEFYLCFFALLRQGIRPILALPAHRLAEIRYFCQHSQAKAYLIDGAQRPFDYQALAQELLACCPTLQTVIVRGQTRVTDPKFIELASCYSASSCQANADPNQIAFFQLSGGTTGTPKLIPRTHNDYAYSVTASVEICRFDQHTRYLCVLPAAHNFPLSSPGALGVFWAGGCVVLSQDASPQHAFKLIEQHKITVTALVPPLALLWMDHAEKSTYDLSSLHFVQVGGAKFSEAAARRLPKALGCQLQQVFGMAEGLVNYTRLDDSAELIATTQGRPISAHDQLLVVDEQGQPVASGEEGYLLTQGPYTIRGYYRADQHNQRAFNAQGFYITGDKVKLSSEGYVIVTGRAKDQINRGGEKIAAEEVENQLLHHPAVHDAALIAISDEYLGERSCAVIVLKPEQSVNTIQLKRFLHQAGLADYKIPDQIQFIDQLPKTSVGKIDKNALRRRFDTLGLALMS

BasE [9] = target: T1, BasE; type: binding
MbtA [10] = target: T3, MbtA; remark: listed apart in the source
AsbC = AsbC (Bacillus anthracis, UniProt Q81RQ7)
AsbC, sequence (Q81RQ7 whole entry, looked up): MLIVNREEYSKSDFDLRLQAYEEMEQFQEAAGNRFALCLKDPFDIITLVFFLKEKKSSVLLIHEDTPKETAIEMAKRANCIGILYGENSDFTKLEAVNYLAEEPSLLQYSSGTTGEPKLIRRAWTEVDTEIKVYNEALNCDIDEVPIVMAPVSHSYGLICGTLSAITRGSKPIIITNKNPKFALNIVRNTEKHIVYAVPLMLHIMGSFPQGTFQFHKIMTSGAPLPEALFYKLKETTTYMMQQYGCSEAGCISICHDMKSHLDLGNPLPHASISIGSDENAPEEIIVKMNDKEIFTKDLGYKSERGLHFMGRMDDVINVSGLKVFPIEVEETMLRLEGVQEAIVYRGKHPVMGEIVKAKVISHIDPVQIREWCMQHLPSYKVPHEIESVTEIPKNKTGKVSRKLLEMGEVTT

YbtE [11] = target: T6, YbtE (Yersinia pseudotuberculosis serotype I, UniProt Q3V7P9)
T6 sequence (Q3V7P9 1-525): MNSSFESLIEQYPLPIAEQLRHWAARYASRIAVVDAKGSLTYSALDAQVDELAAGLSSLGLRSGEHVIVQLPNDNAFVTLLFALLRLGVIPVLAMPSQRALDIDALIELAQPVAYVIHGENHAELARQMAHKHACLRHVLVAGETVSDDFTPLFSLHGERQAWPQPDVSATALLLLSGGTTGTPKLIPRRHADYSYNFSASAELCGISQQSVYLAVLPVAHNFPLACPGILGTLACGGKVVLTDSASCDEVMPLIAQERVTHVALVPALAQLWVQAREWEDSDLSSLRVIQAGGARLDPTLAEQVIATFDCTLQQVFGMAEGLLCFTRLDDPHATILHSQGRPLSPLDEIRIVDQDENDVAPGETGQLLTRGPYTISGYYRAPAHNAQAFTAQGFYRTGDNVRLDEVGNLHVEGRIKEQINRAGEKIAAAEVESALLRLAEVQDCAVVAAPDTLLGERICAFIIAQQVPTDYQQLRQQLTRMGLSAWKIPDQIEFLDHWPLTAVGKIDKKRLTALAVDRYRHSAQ

BasE [12] = target: T1, BasE; type: binding; remark: listed apart in the source
EntE [13] = target: T2, EntE
MbtA [14] = target: T3, MbtA; test: biochemical; type: binding
VibE [15] = target: T5, VibE; test: biochemical; type: binding
DhbE [16] = target: T4, DhbE; test: biochemical; type: binding
YbtE [17] = target: T6, YbtE; details: read-out: Calculated Ligand-Protein Dissociation Constant KD2
[18] = Calculated Ligand-Protein Dissociation Constant KD2
[19] = read-out: Calculated Ligand-Protein Dissociation Constant KD2

T1 sequence (A0A0D5YGP3 1-542): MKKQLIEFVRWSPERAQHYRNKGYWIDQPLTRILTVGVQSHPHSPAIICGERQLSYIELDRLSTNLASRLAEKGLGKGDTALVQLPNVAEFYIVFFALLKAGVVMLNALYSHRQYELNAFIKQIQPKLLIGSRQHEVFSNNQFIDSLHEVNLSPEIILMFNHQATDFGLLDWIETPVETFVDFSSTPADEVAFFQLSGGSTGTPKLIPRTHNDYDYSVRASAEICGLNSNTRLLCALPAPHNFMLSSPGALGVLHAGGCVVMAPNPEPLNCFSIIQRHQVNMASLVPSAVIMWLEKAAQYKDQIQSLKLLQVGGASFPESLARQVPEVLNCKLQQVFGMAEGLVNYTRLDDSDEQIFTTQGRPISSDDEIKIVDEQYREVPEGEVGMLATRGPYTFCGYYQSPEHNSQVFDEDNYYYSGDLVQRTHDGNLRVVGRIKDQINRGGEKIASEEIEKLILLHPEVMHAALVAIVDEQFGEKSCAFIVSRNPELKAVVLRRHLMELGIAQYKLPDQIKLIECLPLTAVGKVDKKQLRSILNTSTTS
T2 sequence (P10378 whole entry): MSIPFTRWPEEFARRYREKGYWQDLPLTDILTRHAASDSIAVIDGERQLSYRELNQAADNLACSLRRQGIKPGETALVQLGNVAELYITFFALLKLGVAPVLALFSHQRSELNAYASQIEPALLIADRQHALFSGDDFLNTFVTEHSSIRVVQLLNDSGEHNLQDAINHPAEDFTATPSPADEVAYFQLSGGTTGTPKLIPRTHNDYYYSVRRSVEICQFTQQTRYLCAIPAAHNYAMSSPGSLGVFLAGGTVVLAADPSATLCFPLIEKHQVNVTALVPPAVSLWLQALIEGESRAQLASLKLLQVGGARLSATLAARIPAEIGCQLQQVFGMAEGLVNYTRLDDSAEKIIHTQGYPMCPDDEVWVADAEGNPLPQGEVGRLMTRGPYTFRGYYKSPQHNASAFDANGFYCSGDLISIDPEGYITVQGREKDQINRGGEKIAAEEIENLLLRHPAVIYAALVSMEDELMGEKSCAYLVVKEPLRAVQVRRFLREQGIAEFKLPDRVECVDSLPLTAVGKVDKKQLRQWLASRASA

In the case of O=C(O)c1ccc(O)c(O)c1 [3,4-dihydroxybenzoic acid], the “kcat (pyrophosphate exchange)” value (BasE [1]) is reported as < 0.017 s⁻¹.
For O=C(O)c1ccccc1 [benzoic acid], the “kcat (pyrophosphate exchange)” value (BasE [1]) is listed as < 0.017 s⁻¹ and the kcat (EntE [2]) is listed as < 0.017 s⁻¹.
With Nc1ncnc2c1ncn2[C@@H]1O[C@H](COS(=O)(=O)NC(=O)c2ccccc2O)[C@@H](O)[C@H]1O [compound 4, 5′-O-[N-(salicyl)sulfamoyl]adenosine] the Kd (BasE [3]; [18]) was 0.0167 ± 0.0031 µM and the Kd (EntE [4]; [18]) was 0.0336 ± 0.006 µM.
Compound CCN(CC)CC.Nc1ncnc2c1ncn2[C@@H]1O[C@H](COS(=O)(=O)NC(=O)c2ccccc2O)[C@@H](O)[C@H]1OCCOCCOCCNC(=O)c1ccc2c(c1)C(=O)OC21c2ccc(O)cc2Oc2cc(O)ccc21 [compound 6, 2′-O-{2-[2-(2-{[(Fluorescein-5-yl)carbonyl]amino}ethoxy)ethoxy]ethoxy}-5′-O-[N-(2-hydroxybenzoyl)sulfamoyl]adenosine Triethylammonium Salt] has a Q (MbtA [5]) of 1.07, an AB (DhbE [6]) of 0.213 ± 0.005 and a Kd (DhbE [6]) of 0.369 ± 0.033 µM. For the same compound, the Q (DhbE [6]) was 0.89, the TΔS (MbtA [7]) was 0.71 ± 0.80 kcal/mol and the ΔH (MbtA [7]) was -9.80 ± 1.06 kcal/mol. It also gave an AB (VibE [8]) of 0.200 ± 0.002, a Kd (VibE [8]) of 0.0855 ± 0.0056 µM and a Q (VibE [8]) of 1.27. For the same compound, the AB (BasE [9]) was 0.222 ± 0.002, the Q (BasE [9]) was 1.02 and the koff (MbtA [10]) was 0.0085 ± 0.00033 s⁻¹. The “change of fluorescence anisotropy of the probe (binding to AsbC)” value (AsbC) was “did not show a significant change”, the AB (YbtE [11]) was 0.240 ± 0.002 and the Kd (YbtE [11]) was 0.0576 ± 0.0034 µM. It also gave a Q (YbtE [11]) of 1.07, a TΔS (BasE [12]) of 4.41 ± 0.18 kcal/mol and a ΔH (BasE [12]) of -4.88 ± 0.17 kcal/mol. It also gave an AB (EntE [13]) of 0.210 ± 0.001, a Kd (EntE [13]) of 0.221 ± 0.008 µM and a Q (EntE [13]) of 1.21.
O=C(O)c1ccccc1O [compound 20, salicylic acid] showed a Kd (BasE [3]; [18]) of 57.5 µM, a Kd (MbtA [14]) of 11.9 µM and a Kd (VibE [15]) of 36.6 µM. The Kd (EntE [4]; [18]) was 211 µM, the Km (EntE [2]) was 91 µM and the kcat (EntE [2]) was 2.5 s⁻¹.
For O=C(O)c1cccc(O)c1O [compound 21, 2,3-dihydroxybenzoic acid], the Kd (BasE [3]; [18]) was 2.63 µM, the Kd (MbtA [14]) was > 300 µM and the Kd (VibE [15]) was 1.64 µM. For the same compound, the Kd (EntE [4]; [18]) was 8.18 µM and the Kd (DhbE [16]) was 3.76 µM.
Nc1ncnc2c1ncn2[C@@H]1O[C@H](COP(=O)(O)O)[C@@H](O)[C@H]1O [compound 22, adenosine monophosphate] gave a Kd (BasE [3]; [19]) of 173 µM, a Kd (MbtA [14]; [19]) of 183 µM and a Kd (VibE [15]) of 12 µM. It also gave a Kd (VibE [15]; [19]) of 12 µM, a Kd (EntE [4]; [19]) of 125 µM and a Kd (YbtE [17]) of 260 µM.
